{"source": "patent US12410133B2", "about": "“Crystalline (r)-5-carbamoylpyridin-3-yl-2-methyl-4-(3-(trifluoromethoxy)benzyl)piperazine-1-carboxylate, compositions and methods of use thereof” (Celgene Corporation, priority 2018, dated 2025)", "format_in_all_cases": "physicochemical", "key": {"[1]": {"experiment": "Competitive slurry study of forms A to E in water", "details": "room temperature, 7 days", "protocol": "A competitive slurry study of all known forms A to E was performed in water at room temperature to understand the thermodynamic stability relationship among these forms. Form A was used to saturate the water before it was filtered to obtain a near-saturated solution. Equal amounts of each form (A to E) were weighed and then mixed with the prepared near-saturated solution to form a new suspension, which was stirred magnetically (˜1000 rpm) at room temperature for 7 days."}, "[2]": {"experiment": "Interconversion study: competitive slurry of Form A and B", "details": "from RT to 50° C.", "protocol": "An interconversion study of crystal forms was performed. To understand the thermodynamic stability relationship between Form A and B, competitive slurry experiments were performed at RT and 50° C. in water and toluene. Prior to the study, Form A was used to saturate the corresponding solvent before it was filtered to obtain a near-saturated solution. Equal amounts of Form A and B samples were weighed and then mixed with the prepared near-saturated solution to form a new suspension, which was stirred magnetically (˜1000 rpm) at RT and 50° C."}, "[3]": {"experiment": "Dynamic vapor sorption (DVS) of Form A", "protocol": "Dynamic vapor sorption (DVS) was performed on a Surface Measurement Systems DVS Intrinsic. The relative humidity at 25° C. were calibrated against deliquescence point of LiCl, Mg(NO3)2, and KCl. Sample sizes were between 10-20 mg. Gas and flow rate was nitrogen, 200 mL/min; dm/dt: 0.002%/min."}, "[4]": {"experiment": "Solution stability test of Form A in physiologically relevant media at 37° C.", "design": "unit not given here", "protocol": "A solution stability test of Form A was performed to assess substantial degradation of (R)-5-carbamoylpyridin-3-yl-2-methyl-4-(3-(trifluoromethoxy)benzyl)piperazine-1-carboxylate in physiologically relevant media. A solution of (R)-5-carbamoylpyridin-3-yl-2-methyl-4-(3-(trifluoromethoxy)benzyl)piperazine-1-carboxylate (1 mg/mL) was prepared in acetonitrile/water (50/50 v/v). Test medium (1990 μL) was added to a vial. Test media evaluated included buffers pH 1-8, simulated gastric fluid (SGF), fasted state simulated intestinal fluid (FaSSIF), and fed state simulated intestinal fluid (FeSSIF). Stock solution (10 μL) was added to the vial containing the medium. This mixture was stirred to mix well and transferred to a HPLC vial, which was placed in the autosampler maintained at 37° C. The vial was injected repeatedly every 4 hr for 24 hr."}, "[5]": {"experiment": "2-hrs equilibrium solubility in FaSSIF and FeSSIF (version 2)", "details": "thermodynamic from solid", "protocol": "A summary of baseline solid state characterization results of crystalline (R)-5-carbamoylpyridin-3-yl-2-methyl-4-(3-(trifluoromethoxy)benzyl)piperazine-1-carboxylate Form A, including pKa, partition coefficient (log D7.4) measurement and 2-hrs equilibrium solubility in FaSSIF and FeSSIF (version 2) are provided herein. […] Log D7.4 was measured with the solvent system of pH 7.4 phosphate buffer and n-octanol by shake-flask method. Meanwhile, 2-hrs equilibrium solubility of (R)-5-carbamoylpyridin-3-yl-2-methyl-4-(3-(trifluoromethoxy)benzyl)piperazine-1-carboxylate in FaSSIF and FeSSIF (version 2) was measured to be 0.12 and 0.080 mg/mL."}}, "data": [{"smiles": "C[C@@H]1CN(Cc2cccc(OC(F)(F)F)c2)CCN1C(=O)Oc1cncc(C(N)=O)c1", "note": "[Form A, (R)-5-carbamoylpyridin-3-yl-2-methyl-4-(3-(trifluoromethoxy)benzyl)piperazine-1-carboxylate]", "values": [{"measurement": "Thermodynamic stability relationship among forms A to E", "setting": "[1]", "value": "thermodynamically the most stable form"}, {"measurement": "Thermodynamic stability relationship between Form A and B", "setting": "[2]", "value": "thermodynamically more stable than Form B"}, {"measurement": "Form change after the DVS test (XRPD comparison)", "setting": "[3]; 25° C., between 0 and 95% RH", "value": "no form change was observed"}, {"measurement": "Water uptake (DVS)", "setting": "[3]; 25° C./80% RH", "value": 0.05, "unit": "%"}, {"measurement": "Solution chemical stability data", "setting": "[4]; FaSSIF, 37° C., 0 hr", "value": 100.0}, {"measurement": "Solution chemical stability data", "setting": "[4]; FaSSIF, 37° C., 4 hr", "value": 100.6}, {"measurement": "Solution chemical stability data", "setting": "[4]; FaSSIF, 37° C., 8 hr", "value": 100.2}, {"measurement": "Solution chemical stability data", "setting": "[4]; FaSSIF, 37° C., 12 hr", "value": 100.5}, {"measurement": "Solution chemical stability data", "setting": "[4]; FaSSIF, 37° C., 16 hr", "value": 100.3}, {"measurement": "Solution chemical stability data", "setting": "[4]; FaSSIF, 37° C., 20 hr", "value": 100.0}, {"measurement": "Solution chemical stability data", "setting": "[4]; FaSSIF, 37° C., 24 hr", "value": 100.0}, {"measurement": "Solution chemical stability data", "setting": "[4]; FeSSIF, 37° C., 0 hr", "value": 100.0}, {"measurement": "Solution chemical stability data", "setting": "[4]; FeSSIF, 37° C., 4 hr", "value": 99.6}, {"measurement": "Solution chemical stability data", "setting": "[4]; FeSSIF, 37° C., 8 hr", "value": 100.2}, {"measurement": "Solution chemical stability data", "setting": "[4]; FeSSIF, 37° C., 12 hr", "value": 99.7}, {"measurement": "Solution chemical stability data", "setting": "[4]; FeSSIF, 37° C., 16 hr", "value": 99.6}, {"measurement": "Solution chemical stability data", "setting": "[4]; FeSSIF, 37° C., 20 hr", "value": 99.8}, {"measurement": "Solution chemical stability data", "setting": "[4]; FeSSIF, 37° C., 24 hr", "value": 99.7}, {"measurement": "Solution chemical stability data", "setting": "[4]; SGF, 37° C., 0 hr", "value": 100.0}, {"measurement": "Solution chemical stability data", "setting": "[4]; SGF, 37° C., 4 hr", "value": 100.2}, {"measurement": "Solution chemical stability data", "setting": "[4]; SGF, 37° C., 8 hr", "value": 100.1}, {"measurement": "Solution chemical stability data", "setting": "[4]; SGF, 37° C., 12 hr", "value": 99.2}, {"measurement": "Solution chemical stability data", "setting": "[4]; SGF, 37° C., 16 hr", "value": 99.7}, {"measurement": "Solution chemical stability data", "setting": "[4]; SGF, 37° C., 20 hr", "value": 100.4}, {"measurement": "Solution chemical stability data", "setting": "[4]; SGF, 37° C., 24 hr", "value": 99.6}, {"measurement": "Solution chemical stability data", "setting": "[4]; pH = 1, 37° C., 0 hr", "value": 100.0}, {"measurement": "Solution chemical stability data", "setting": "[4]; pH = 1, 37° C., 4 hr", "value": 99.6}, {"measurement": "Solution chemical stability data", "setting": "[4]; pH = 1, 37° C., 8 hr", "value": 100.3}, {"measurement": "Solution chemical stability data", "setting": "[4]; pH = 1, 37° C., 12 hr", "value": 100.3}, {"measurement": "Solution chemical stability data", "setting": "[4]; pH = 1, 37° C., 16 hr", "value": 99.9}, {"measurement": "Solution chemical stability data", "setting": "[4]; pH = 1, 37° C., 20 hr", "value": 101.9}, {"measurement": "Solution chemical stability data", "setting": "[4]; pH = 1, 37° C., 24 hr", "value": 100.5}, {"measurement": "Solution chemical stability data", "setting": "[4]; pH = 3, 37° C., 0 hr", "value": 100.0}, {"measurement": "Solution chemical stability data", "setting": "[4]; pH = 3, 37° C., 4 hr", "value": 99.8}, {"measurement": "Solution chemical stability data", "setting": "[4]; pH = 3, 37° C., 8 hr", "value": 99.8}, {"measurement": "Solution chemical stability data", "setting": "[4]; pH = 3, 37° C., 12 hr", "value": 98.5}, {"measurement": "Solution chemical stability data", "setting": "[4]; pH = 3, 37° C., 16 hr", "value": 99.3}, {"measurement": "Solution chemical stability data", "setting": "[4]; pH = 3, 37° C., 20 hr", "value": 99.6}, {"measurement": "Solution chemical stability data", "setting": "[4]; pH = 3, 37° C., 24 hr", "value": 99.5}, {"measurement": "Solution chemical stability data", "setting": "[4]; pH = 5.0, 37° C., 0 hr", "value": 100.0}, {"measurement": "Solution chemical stability data", "setting": "[4]; pH = 5.0, 37° C., 4 hr", "value": 100.9}, {"measurement": "Solution chemical stability data", "setting": "[4]; pH = 5.0, 37° C., 8 hr", "value": 101.7}, {"measurement": "Solution chemical stability data", "setting": "[4]; pH = 5.0, 37° C., 12 hr", "value": 99.9}, {"measurement": "Solution chemical stability data", "setting": "[4]; pH = 5.0, 37° C., 16 hr", "value": 100.7}, {"measurement": "Solution chemical stability data", "setting": "[4]; pH = 5.0, 37° C., 20 hr", "value": 99.9}, {"measurement": "Solution chemical stability data", "setting": "[4]; pH = 5.0, 37° C., 24 hr", "value": 99.6}, {"measurement": "Solution chemical stability data", "setting": "[4]; pH = 6.8, 37° C., 0 hr", "value": 100.0}, {"measurement": "Solution chemical stability data", "setting": "[4]; pH = 6.8, 37° C., 4 hr", "value": 100.2}, {"measurement": "Solution chemical stability data", "setting": "[4]; pH = 6.8, 37° C., 8 hr", "value": 100.8}, {"measurement": "Solution chemical stability data", "setting": "[4]; pH = 6.8, 37° C., 12 hr", "value": 100.1}, {"measurement": "Solution chemical stability data", "setting": "[4]; pH = 6.8, 37° C., 16 hr", "value": 100.0}, {"measurement": "Solution chemical stability data", "setting": "[4]; pH = 6.8, 37° C., 20 hr", "value": 99.6}, {"measurement": "Solution chemical stability data", "setting": "[4]; pH = 6.8, 37° C., 24 hr", "value": 99.0}, {"measurement": "Solution chemical stability data", "setting": "[4]; pH = 8.0, 37° C., 0 hr", "value": 100.0}, {"measurement": "Solution chemical stability data", "setting": "[4]; pH = 8.0, 37° C., 4 hr", "value": 101.3}, {"measurement": "Solution chemical stability data", "setting": "[4]; pH = 8.0, 37° C., 8 hr", "value": 100.5}, {"measurement": "Solution chemical stability data", "setting": "[4]; pH = 8.0, 37° C., 12 hr", "value": 99.7}, {"measurement": "Solution chemical stability data", "setting": "[4]; pH = 8.0, 37° C., 16 hr", "value": 100.1}, {"measurement": "Solution chemical stability data", "setting": "[4]; pH = 8.0, 37° C., 20 hr", "value": 98.7}, {"measurement": "Solution chemical stability data", "setting": "[4]; pH = 8.0, 37° C., 24 hr", "value": 99.4}, {"measurement": "solubility thermodynamic at 2 h", "setting": "[5]; FaSSIF (version 2), fassif", "value": 120, "unit": "µg/mL"}, {"measurement": "solubility thermodynamic at 2 h", "setting": "[5]; FeSSIF (version 2), fessif", "value": 80, "unit": "µg/mL"}]}]}
